Results reported in patent US11945822B2, “Pyrazolo-triazine and/or pyrazolo-pxrimidine derivatives as selective inhibitor of cyclin dependent kinase” (QURIENT CO., LTD., priority 2018, dated 2024).

The compounds below were run on MV4-11 (assay: Cellular MV4-11 viability assay (CellTiter-Glo, 72 hours)). Details: Homo sapiens.
Format: cell-based
Method: (§1) All cell lines were routinely tested for mycoplasma.
(§2) The effect of the CDK7 inhibitor to inhibit the growth of target cancer cells was evaluated through the 72 hours time period of viability assay. Briefly, the candidate cell line ware plated in 96 well plate at the following density of cells respectively. […] DMSO solvent without compound served as a control and final DMSO concentration less than 0.1%. After 72 hours of incubation at 37° C., 5% CO2 incubator, cells were analyzed for the viability using the CellTiter-Glo Luminescent Cell Viability Assay (Promega, Cat #G7570). All viability assays were performed in duplicate and Luminescence was read using an Envision (Perkin Elmer, USA). Data was analyzed using XLfit software.

| IC50 [µM] | Structure (SMILES) |
| --- | --- |
| 1 to 10 | CC(C)c1cnn2c(NCc3ccccc3-c3ccc4ccccc4n3)nc(NCC3(O)CCNCC3)nc12 [Compound 212] |
| 1 to 10 | CC[C@@H](N)COc1nc(NCc2ccccc2-c2ccc3ccccc3n2)n2ncc(C(C)C)c2n1 [Compound 237] |
| < 1 | CC(C)c1cnn2c(NCc3ccccc3-n3ccc(C(C)(C)O)n3)nc(N3CCC(CN)CC3)nc12 [Compound 221] |
| < 1 | CC(C)c1cnn2c(NCc3ccccc3-c3ccc4ccccc4n3)nc(N3CCC(CN)CC3)nc12 [Compound 216] |

Each compound was assayed against T1, CDK5/p25 (Homo sapiens, UniProt Q00535) (assay: Enzymatic assay for CDK5 (FRET based LANCE Ultra kinase assay)). Details: read-out: CDK5 enzymatic activity (IC50 range).
T1 construct: purchased Invitrogen PR8543B
T1 sequence (Q00535 whole entry): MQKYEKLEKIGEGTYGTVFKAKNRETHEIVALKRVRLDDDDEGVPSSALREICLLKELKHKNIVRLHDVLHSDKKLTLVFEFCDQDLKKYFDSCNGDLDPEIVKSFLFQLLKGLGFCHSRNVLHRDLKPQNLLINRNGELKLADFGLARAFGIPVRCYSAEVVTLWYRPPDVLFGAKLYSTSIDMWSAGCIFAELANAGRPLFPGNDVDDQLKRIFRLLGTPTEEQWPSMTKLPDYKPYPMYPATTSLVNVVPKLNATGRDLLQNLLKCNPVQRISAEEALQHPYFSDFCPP
T1 sequence (Q15078 99-307 partner limits assumed): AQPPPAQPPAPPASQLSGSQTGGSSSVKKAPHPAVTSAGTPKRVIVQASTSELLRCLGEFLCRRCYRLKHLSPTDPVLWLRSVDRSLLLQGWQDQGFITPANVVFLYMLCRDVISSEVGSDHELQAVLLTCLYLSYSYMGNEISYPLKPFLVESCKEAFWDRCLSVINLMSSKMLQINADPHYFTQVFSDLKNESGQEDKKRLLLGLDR
Format: biochemical
Method: (§3) Enzymatic Binding Assay Protocol for CDK1, CDK2, CDK5 and CDK7
(§4) Inhibition activity of the respective compound on CDK kinase under Km value of ATP was tested in FRET based The LANCE® Ultra kinase assay (Perkin Elmer), which uses a ULight™-labeled peptide substrate and an appropriate Europium-labeled anti-phospho-antibody. Test compounds were made with DMSO solutions, and then 4-fold serial dilutions for 8 doses were prepared using automated liquid handler (POD810, LABCYTE) and 80 nL/well of diluted compound solutions were added into the 384-well plates (Greiner, Cat #784075). And then 68 nM of ULight-MBP peptide (Perkin Elmer, Cat #TRF0109-M) and 5 ul/well of ATP (Sigma, Cat #A7699) were added to the plate. After 1 min centrifugation at 1000 rpm, Purified CDKs/Cyclin complex were added following concentrations respectively. 24 uM for CDK1/Cyclin B (Invitrogen, Cat #PR4768C), 22 uM for CDK2/Cyclin A (Invitrogen, Cat #PV6290), 10 uM for CDK5/p25 (Invitrogen, Cat #PR8543B) and […] for CDK7/Cyclin H/MNAT1 (Invitrogen, Cat #PR6749B) were added to the each corresponding plate for CDK1, CDK2, CDK5 and CDK7. Incubate at 23° C. for 60 min and then Eu-labeled anti-phospho-Myelin Basic Protein (PE, Cat #TRF0201-M) and EDTA (Invitrogen, Cat #15575038) mixture in Lance Detection Buffer (Perkin Elmer, Cat #CR97100) was added in each well. After additional incubation at 23° C. for 60 min, test articles were measured the fluorescence using Envision leader (Perkin Elmer, USA) [Laser as excitation light; […] as the first and the second emission filter]. Data was analyzed using XL Fit software.

| IC50 [µM] | Structure (SMILES) |
| --- | --- |
| > 1 | CC(C)c1cnn2c(NCc3ccccc3-c3ccc4ccccc4n3)nc(NCC3(O)CCNCC3)nc12 [Compound 212] |
| > 1 | CC[C@@H](N)COc1nc(NCc2ccccc2-c2ccc3ccccc3n2)n2ncc(C(C)C)c2n1 [Compound 237] |
| > 1 | CC(C)c1cnn2c(NCc3ccccc3-n3ccc(C(C)(C)O)n3)nc(N3CCC(CN)CC3)nc12 [Compound 221] |
| > 1 | CC(C)c1cnn2c(NCc3ccccc3-c3ccc4ccccc4n3)nc(N3CCC(CN)CC3)nc12 [Compound 216] |

The compounds below were run against T2, CDK1/Cyclin B (Homo sapiens, UniProt P06493) (assay: Enzymatic assay for CDK1 (FRET based LANCE Ultra kinase assay)). Details: read-out: CDK1 enzymatic activity (IC50 range).
T2 construct: purchased Invitrogen PR4768C
T2 sequence (P06493 whole entry): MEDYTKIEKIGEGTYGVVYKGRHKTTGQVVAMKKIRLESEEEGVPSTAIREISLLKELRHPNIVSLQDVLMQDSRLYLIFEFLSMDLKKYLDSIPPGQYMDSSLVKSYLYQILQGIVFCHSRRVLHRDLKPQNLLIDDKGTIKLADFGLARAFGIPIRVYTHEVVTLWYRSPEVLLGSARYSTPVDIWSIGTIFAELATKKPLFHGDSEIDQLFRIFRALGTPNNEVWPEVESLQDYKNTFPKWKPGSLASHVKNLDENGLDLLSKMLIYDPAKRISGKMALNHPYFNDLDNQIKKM
T2 sequence (P14635 whole entry partner): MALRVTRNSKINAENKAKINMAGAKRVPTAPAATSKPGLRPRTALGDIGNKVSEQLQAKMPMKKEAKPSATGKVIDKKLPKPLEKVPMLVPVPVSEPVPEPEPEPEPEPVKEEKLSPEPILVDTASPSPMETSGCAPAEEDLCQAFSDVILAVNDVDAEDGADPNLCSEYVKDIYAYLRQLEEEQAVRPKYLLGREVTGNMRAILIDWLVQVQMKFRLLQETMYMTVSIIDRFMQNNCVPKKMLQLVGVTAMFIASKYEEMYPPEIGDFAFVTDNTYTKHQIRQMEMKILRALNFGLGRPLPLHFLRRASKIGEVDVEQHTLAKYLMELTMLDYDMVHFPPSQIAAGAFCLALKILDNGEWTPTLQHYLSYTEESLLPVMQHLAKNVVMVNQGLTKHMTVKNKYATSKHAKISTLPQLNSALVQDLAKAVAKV
Format: biochemical
Method: as §3, §4

| IC50 [µM] | Structure (SMILES) |
| --- | --- |
| > 1 | CC(C)c1cnn2c(NCc3ccccc3-c3ccc4ccccc4n3)nc(NCC3(O)CCNCC3)nc12 [Compound 212] |
| > 1 | CC[C@@H](N)COc1nc(NCc2ccccc2-c2ccc3ccccc3n2)n2ncc(C(C)C)c2n1 [Compound 237] |
| > 1 | CC(C)c1cnn2c(NCc3ccccc3-n3ccc(C(C)(C)O)n3)nc(N3CCC(CN)CC3)nc12 [Compound 221] |
| > 1 | CC(C)c1cnn2c(NCc3ccccc3-c3ccc4ccccc4n3)nc(N3CCC(CN)CC3)nc12 [Compound 216] |

These compounds were tested against T3, CDK7/Cyclin H/MNAT1 (Homo sapiens, UniProt P50613) (assay: Enzymatic assay for CDK7 (FRET based LANCE Ultra kinase assay)). Details: CDK7 over CDK1.
T3 construct: purchased Invitrogen PR6749B
T3 sequence (P50613 whole entry): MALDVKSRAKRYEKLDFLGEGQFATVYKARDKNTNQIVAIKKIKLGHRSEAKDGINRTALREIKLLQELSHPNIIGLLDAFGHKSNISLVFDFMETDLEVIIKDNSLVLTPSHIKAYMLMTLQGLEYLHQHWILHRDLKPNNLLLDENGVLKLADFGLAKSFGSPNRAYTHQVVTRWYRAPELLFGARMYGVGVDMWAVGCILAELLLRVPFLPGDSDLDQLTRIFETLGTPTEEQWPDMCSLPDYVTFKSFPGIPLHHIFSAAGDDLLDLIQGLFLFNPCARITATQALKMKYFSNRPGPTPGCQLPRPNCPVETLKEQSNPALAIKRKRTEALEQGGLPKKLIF
T3 sequence (P51946 whole entry partner): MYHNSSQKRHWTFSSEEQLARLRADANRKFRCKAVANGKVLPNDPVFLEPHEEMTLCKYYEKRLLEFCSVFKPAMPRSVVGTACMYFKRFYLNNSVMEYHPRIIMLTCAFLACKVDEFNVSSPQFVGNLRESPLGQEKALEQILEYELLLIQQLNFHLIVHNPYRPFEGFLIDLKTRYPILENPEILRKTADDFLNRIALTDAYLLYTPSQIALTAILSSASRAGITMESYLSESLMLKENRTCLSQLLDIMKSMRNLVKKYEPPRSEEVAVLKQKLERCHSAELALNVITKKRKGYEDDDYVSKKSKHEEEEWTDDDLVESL
T3 sequence (P51948 whole entry partner): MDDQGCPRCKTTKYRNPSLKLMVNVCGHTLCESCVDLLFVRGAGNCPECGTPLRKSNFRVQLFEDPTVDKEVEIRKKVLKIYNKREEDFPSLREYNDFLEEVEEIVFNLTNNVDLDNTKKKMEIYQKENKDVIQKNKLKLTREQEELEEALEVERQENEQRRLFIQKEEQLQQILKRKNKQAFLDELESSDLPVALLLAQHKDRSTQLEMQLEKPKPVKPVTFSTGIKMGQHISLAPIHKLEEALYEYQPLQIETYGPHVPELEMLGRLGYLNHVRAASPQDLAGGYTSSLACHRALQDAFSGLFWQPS
Format: biochemical
Method: as §3
Inhibition activity of the respective compound on CDK kinase under Km value of ATP was tested in FRET based The LANCE® Ultra kinase assay (Perkin Elmer), which uses a ULight™-labeled peptide substrate and an appropriate Europium-labeled anti-phospho-antibody. […] After 1 min centrifugation at 1000 rpm, Purified CDKs/Cyclin complex were added following concentrations respectively. […] Data was analyzed using XL Fit software.

| CDK1/CDK7: Selectivity of CDK7 inhibition over CDK1 inhibition | Structure (SMILES) |
| --- | --- |
| A (A=greater than 200 fold) | CC(C)c1cnn2c(NCc3ccccc3-c3ccc4ccccc4n3)nc(NCC3(O)CCNCC3)nc12 [Compound 212] |
| A (A=greater than 200 fold) | CC[C@@H](N)COc1nc(NCc2ccccc2-c2ccc3ccccc3n2)n2ncc(C(C)C)c2n1 [Compound 237] |
| A (A=greater than 200 fold) | CC(C)c1cnn2c(NCc3ccccc3-n3ccc(C(C)(C)O)n3)nc(N3CCC(CN)CC3)nc12 [Compound 221] |
| A (A=greater than 200 fold) | CC(C)c1cnn2c(NCc3ccccc3-c3ccc4ccccc4n3)nc(N3CCC(CN)CC3)nc12 [Compound 216] |

Same assay, conditions: CDK7 over CDK2

| CDK2/CDK7: Selectivity of CDK7 inhibition over CDK2 inhibition | Structure (SMILES) |
| --- | --- |
| A (A=greater than 200 fold) | CC[C@@H](N)COc1nc(NCc2ccccc2-c2ccc3ccccc3n2)n2ncc(C(C)C)c2n1 [Compound 237] |
| A (A=greater than 200 fold) | CC(C)c1cnn2c(NCc3ccccc3-n3ccc(C(C)(C)O)n3)nc(N3CCC(CN)CC3)nc12 [Compound 221] |
| A (A=greater than 200 fold) | CC(C)c1cnn2c(NCc3ccccc3-c3ccc4ccccc4n3)nc(N3CCC(CN)CC3)nc12 [Compound 216] |

| Structure (SMILES) | CDK2/CDK7: Selectivity of CDK7 inhibition over CDK2 inhibition |
| --- | --- |
| CC(C)c1cnn2c(NCc3ccccc3-c3ccc4ccccc4n3)nc(NCC3(O)CCNCC3)nc12 [Compound 212] | B (B=less than 200 fold, but greater than 20 fold) |

Same assay, conditions: CDK7 over CDK5

| CDK5/CDK7: Selectivity of CDK7 inhibition over CDK5 inhibition | Structure (SMILES) |
| --- | --- |
| A (A=greater than 200 fold) | CC[C@@H](N)COc1nc(NCc2ccccc2-c2ccc3ccccc3n2)n2ncc(C(C)C)c2n1 [Compound 237] |
| A (A=greater than 200 fold) | CC(C)c1cnn2c(NCc3ccccc3-n3ccc(C(C)(C)O)n3)nc(N3CCC(CN)CC3)nc12 [Compound 221] |
| A (A=greater than 200 fold) | CC(C)c1cnn2c(NCc3ccccc3-c3ccc4ccccc4n3)nc(N3CCC(CN)CC3)nc12 [Compound 216] |

| Structure (SMILES) | CDK5/CDK7: Selectivity of CDK7 inhibition over CDK5 inhibition |
| --- | --- |
| CC(C)c1cnn2c(NCc3ccccc3-c3ccc4ccccc4n3)nc(NCC3(O)CCNCC3)nc12 [Compound 212] | B (B=less than 200 fold, but greater than 20 fold) |

Same assay, conditions: read-out: CDK7 enzymatic activity (IC50 range)

| IC50 [µM] | Structure (SMILES) |
| --- | --- |
| < 0.1 | CC(C)c1cnn2c(NCc3ccccc3-c3ccc4ccccc4n3)nc(NCC3(O)CCNCC3)nc12 [Compound 212] |
| < 0.1 | CC[C@@H](N)COc1nc(NCc2ccccc2-c2ccc3ccccc3n2)n2ncc(C(C)C)c2n1 [Compound 237] |
| < 0.1 | CC(C)c1cnn2c(NCc3ccccc3-n3ccc(C(C)(C)O)n3)nc(N3CCC(CN)CC3)nc12 [Compound 221] |
| < 0.1 | CC(C)c1cnn2c(NCc3ccccc3-c3ccc4ccccc4n3)nc(N3CCC(CN)CC3)nc12 [Compound 216] |

The compounds below were run on HCT116 (assay: Cellular HCT116 viability assay (CellTiter-Glo, 72 hours)). Details: Homo sapiens, HCT-116.
Format: cell-based
Method: as §1, §2

| IC50 [µM] | Structure (SMILES) |
| --- | --- |
| 1 to 10 | CC(C)c1cnn2c(NCc3ccccc3-c3ccc4ccccc4n3)nc(NCC3(O)CCNCC3)nc12 [Compound 212] |
| 1 to 10 | CC[C@@H](N)COc1nc(NCc2ccccc2-c2ccc3ccccc3n2)n2ncc(C(C)C)c2n1 [Compound 237] |
| < 1 | CC(C)c1cnn2c(NCc3ccccc3-n3ccc(C(C)(C)O)n3)nc(N3CCC(CN)CC3)nc12 [Compound 221] |
| < 1 | CC(C)c1cnn2c(NCc3ccccc3-c3ccc4ccccc4n3)nc(N3CCC(CN)CC3)nc12 [Compound 216] |

These compounds were tested on H460 (assay: Cellular H460 viability assay (CellTiter-Glo, 72 hours)). Details: Homo sapiens, NCI-H460.
Format: cell-based
Method: as §1, §2

| IC50 [µM] | Structure (SMILES) |
| --- | --- |
| 1 to 10 | CC(C)c1cnn2c(NCc3ccccc3-c3ccc4ccccc4n3)nc(NCC3(O)CCNCC3)nc12 [Compound 212] |
| 1 to 10 | CC[C@@H](N)COc1nc(NCc2ccccc2-c2ccc3ccccc3n2)n2ncc(C(C)C)c2n1 [Compound 237] |
| < 1 | CC(C)c1cnn2c(NCc3ccccc3-n3ccc(C(C)(C)O)n3)nc(N3CCC(CN)CC3)nc12 [Compound 221] |
| < 1 | CC(C)c1cnn2c(NCc3ccccc3-c3ccc4ccccc4n3)nc(N3CCC(CN)CC3)nc12 [Compound 216] |

What follows are compounds tested against T4, CDK2/Cyclin A (Homo sapiens, UniProt P24941) (assay: Enzymatic assay for CDK2 (FRET based LANCE Ultra kinase assay)). Details: read-out: CDK2 enzymatic activity (IC50 range).
T4 construct: purchased Invitrogen PV6290
Format: biochemical
Method: as §3, §4

| IC50 [µM] | Structure (SMILES) |
| --- | --- |
| > 1 | CC(C)c1cnn2c(NCc3ccccc3-c3ccc4ccccc4n3)nc(NCC3(O)CCNCC3)nc12 [Compound 212] |
| > 1 | CC[C@@H](N)COc1nc(NCc2ccccc2-c2ccc3ccccc3n2)n2ncc(C(C)C)c2n1 [Compound 237] |
| > 1 | CC(C)c1cnn2c(NCc3ccccc3-n3ccc(C(C)(C)O)n3)nc(N3CCC(CN)CC3)nc12 [Compound 221] |
| > 1 | CC(C)c1cnn2c(NCc3ccccc3-c3ccc4ccccc4n3)nc(N3CCC(CN)CC3)nc12 [Compound 216] |
